Drawing on patent US20230203098A1, “HUMAN TRANSFERRIN RECEPTOR BINDING PEPTIDE” (priority 2020, published 2023), this text covers Kd for 14 compounds.

Read-outs that look alike come from different tables or passages of the source. Where a SMILES comes first, the peptide text is derived from it. Bridges are numbered along the chain shown (N, C = ends). [ ]: non-standard residue; d: D form. PEG12 = NCCOCCOCCOCCOCCOCCOCCOCCOCCOCCOCCOCCOCCC(=O)O; NMePhe(3-Cl) = CN[C@@H](Cc1cccc(Cl)c1)C(=O)O; NMeW = CN[C@@H](Cc1c[nH]c2ccccc12)C(=O)O; NMeY = CN[C@@H](Cc1ccc(O)cc1)C(=O)O; NMeF = CN[C@@H](Cc1ccccc1)C(=O)O; PEG4 = NCCOCCOCCOCCOCCC(=O)O; Abu = CC[C@H](N)C(=O)O Some results are limits rather than exact numbers.

For this assay, the target named is transferrin receptor (hTfR) (Homo sapiens, UniProt P02786). The experiment in a line: Intermolecular interaction evaluation test between transferrin receptor (hTfR) and peptide by surface plasmon resonance (SPR). It counts as binding. A digest of the protocol: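 Receptor was Ni-captured and EDC/NHS-fixed on an NTA chip; running buffer HEPES pH 8.0 with NaCl, Tween 20, BSA and 1.0% DMSO.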
In general terms: In SPR one partner is held on a chip, and binding of the other changes the refractive index at the surface.

The mark [1] stands for this setting: surface plasmon resonance, peptide vs hTfR, read-out: KD value, hTfR binding by SPR (class symbol).
Where [2] appears, read: surface plasmon resonance, hTfR, read-out: KD value for hTfR by SPR (class symbol).
Setting [3] is: SPR, hTfR No. 894 variants with PEG12c linker (Table 2), read-out: KD.

Sequence of transferrin receptor (hTfR) (P02786 whole entry): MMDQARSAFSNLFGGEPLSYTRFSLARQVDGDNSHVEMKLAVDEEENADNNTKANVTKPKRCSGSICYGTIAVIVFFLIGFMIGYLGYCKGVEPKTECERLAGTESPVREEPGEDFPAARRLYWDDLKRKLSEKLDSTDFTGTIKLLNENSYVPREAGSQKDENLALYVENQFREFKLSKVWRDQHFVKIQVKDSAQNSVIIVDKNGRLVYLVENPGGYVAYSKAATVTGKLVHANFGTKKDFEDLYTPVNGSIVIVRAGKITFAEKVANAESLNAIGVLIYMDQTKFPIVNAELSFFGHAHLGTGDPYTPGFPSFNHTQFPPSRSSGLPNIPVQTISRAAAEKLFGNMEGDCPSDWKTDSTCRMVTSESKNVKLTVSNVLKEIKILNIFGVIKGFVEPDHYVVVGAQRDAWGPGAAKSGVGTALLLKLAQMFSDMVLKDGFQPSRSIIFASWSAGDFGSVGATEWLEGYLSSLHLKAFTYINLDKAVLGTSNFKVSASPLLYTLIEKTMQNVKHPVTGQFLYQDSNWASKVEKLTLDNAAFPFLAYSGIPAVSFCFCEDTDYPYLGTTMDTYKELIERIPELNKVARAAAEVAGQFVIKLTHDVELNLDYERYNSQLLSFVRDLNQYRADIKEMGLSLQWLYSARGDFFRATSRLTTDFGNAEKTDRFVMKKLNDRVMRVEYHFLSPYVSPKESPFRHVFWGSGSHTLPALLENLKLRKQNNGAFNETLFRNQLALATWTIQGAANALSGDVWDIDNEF

As to `CC[C@H](C)[C@@H]1NC(=O)[C@H](Cc2ccc(OC)cc2)NC(=O)[C@H](Cc2ccc(O)cc2)NC(=O)[C@H](CC(N)=O)NC(=O)[C@H](Cc2c[nH]c3ccccc23)N(C)C(=O)[C@H](C(C)C)NC(=O)[C@H](Cc2cccc(Cl)c2)N(C)C(=O)[C@H](CCC(=O)O)NC(=O)[C@H](C)NC(=O)CSC[C@@H](C(=O)NCC(=O)NCC(=O)NCC(=O)NCC(=O)N[C@@H](CO)C(=O)N[C@@H](CO)C(=O)N[C@@H](CS)C(N)=O)NC(=O)[C@H](Cc2ccc(O)cc2)N(C)C(=O)[C@H](Cc2ccccc2)NC(=O)[C@@H](CCCNC(=N)N)NC(=O)[C@H](CCCNC(=N)N)NC(=O)[C@H](CCC(=O)O)NC1=O` [compound 223], for the setting “SPR, peptides, linker-added peptides and FITC conjugates, Patent ID 203-230, read-out: KD”, the Kd (in general, the concentration at which binding is half-saturated) fell in the range of 1 to 100 nM.

As for `CC[C@H](C)[C@@H]1NC(=O)[C@H](Cc2ccc(O)cc2)NC(=O)[C@H](Cc2ccc(O)cc2)NC(=O)[C@H](CC(N)=O)NC(=O)[C@H](Cc2c[nH]c3ccccc23)NC(=O)[C@H](C(C)C)NC(=O)[C@H](Cc2cccc(Cl)c2)N(C)C(=O)[C@H](C(C)C)NC(=O)[C@H](C)NC(=O)CSC[C@@H](C(N)=O)NC(=O)[C@H](Cc2ccc(O)cc2)N(C)C(=O)[C@H](Cc2ccccc2)NC(=O)[C@H](CCCCN)NC(=O)[C@H](CC(=O)O)NC(=O)[C@H]([C@@H](C)CC)NC1=O` [compound 307], under setting [1], the Kd lay in the range of 1 to 100 nM.

Regarding `CC[C@H](C)[C@@H]1NC(=O)[C@H](Cc2ccc(OC)cc2)NC(=O)[C@H](Cc2ccc(O)cc2)NC(=O)[C@H](CC(N)=O)NC(=O)[C@H](Cc2c[nH]c3ccccc23)N(C)C(=O)[C@H](C(C)C)NC(=O)[C@H](Cc2cccc(Cl)c2)N(C)C(=O)[C@H](C(C)C)NC(=O)[C@H](C)NC(=O)CSC[C@@H](C(N)=O)NC(=O)[C@H](Cc2ccc(O)cc2)N(C)C(=O)[C@H](Cc2ccccc2)NC(=O)[C@@H](CCCNC(=N)N)NC(=O)C(C)(C)NC(=O)[C@H]([C@@H](C)CC)NC1=O` [compound 353], the Kd under setting [2] lay within 1 to 100 nM.

With `CC[C@H](C)[C@@H]1NC(=O)[C@H](Cc2ccc(OC)cc2)NC(=O)[C@H](Cc2ccc(O)cc2)NC(=O)[C@H](CC(N)=O)NC(=O)[C@H](Cc2c[nH]c3ccccc23)N(C)C(=O)[C@H](C(C)C)NC(=O)[C@H](Cc2cccc(Cl)c2)N(C)C(=O)[C@H](C(C)C)NC(=O)[C@H](C)NC(=O)CSC[C@@H](C(=O)NCCOCCOCCOCCOCCC(N)=O)NC(=O)[C@H](Cc2ccc(O)cc2)N(C)C(=O)[C@H](Cc2ccccc2)NC(=O)[C@H](CCCNC(=N)N)NC(=O)C(C)(C)NC(=O)[C@H]([C@@H](C)CC)NC1=O` [compound 351], the dissociation constant Kd under setting [2] was 1 to 100 nM.

Consider `CC[C@@H]1NC(=O)[C@H](C)NC(=O)CSC[C@@H](C(=O)NCCOCCOCCOCCOCCC(N)=O)NC(=O)[C@H](Cc2ccc(O)cc2)N(C)C(=O)[C@H](Cc2ccccc2)NC(=O)[C@@H](CCCNC(=N)N)NC(=O)[C@H](CCCNC(=N)N)NC(=O)[C@H]([C@@H](C)CC)NC(=O)[C@H]([C@@H](C)CC)NC(=O)[C@H](Cc2ccc(OC)cc2)NC(=O)[C@H](Cc2ccc(O)cc2)NC(=O)[C@H](CC(N)=O)NC(=O)[C@H](Cc2c[nH]c3ccccc23)N(C)C(=O)[C@H](C(C)C)NC(=O)[C@H](Cc2cccc(Cl)c2)N(C)C1=O` [compound 243] ({CH2CO}-A[Abu][NMePhe(3-Cl)]V[NMeW]NYY(Me)IIR[dR]F[NMeY]C[PEG4]-NH2; thioether N-15), for which the equilibrium dissociation constant (Kd) (binding to hTfR by SPR, Table 2 peptides, read-out: KD value (SPR) class) fell in the range of 1 to 100 nM.

In the case of `CC[C@H](C)[C@@H]1NC(=O)[C@H](Cc2ccc(OC)cc2)NC(=O)[C@H](Cc2ccc(O)cc2)NC(=O)[C@H](CC(N)=O)NC(=O)[C@H](Cc2c[nH]c3ccccc23)N(C)C(=O)[C@H](C(C)C)NC(=O)[C@H](Cc2cccc(Cl)c2)N(C)C(=O)[C@H](C(C)C)NC(=O)[C@H](C)NC(=O)CSC[C@@H](C(N)=O)NC(=O)[C@H](Cc2ccc(O)cc2)N(C)C(=O)[C@H](Cc2ccccc2)NC(=O)[C@H](CCCNC(=N)N)NC(=O)[C@H](CCCNC(=N)N)N(C)C(=O)[C@H]([C@@H](C)CC)NC1=O` [compound 381], the Kd under setting [2] lay in the range of 1 to 100 nM.

Consider `CC[C@H](C)[C@@H]1NC(=O)[C@H](Cc2ccc(O)cc2)NC(=O)[C@H](Cc2ccc(O)cc2)NC(=O)[C@H](CC(N)=O)NC(=O)[C@H](Cc2c[nH]c3ccccc23)NC(=O)[C@H](C(C)C)NC(=O)[C@H](Cc2ccccc2)N(C)C(=O)[C@H](Cc2ccccc2)NC(=O)[C@H](C)NC(=O)CSC[C@@H](C(=O)NCCOCCOCCOCCOCCOCCOCCOCCOCCOCCOCCOCCOCCC(N)=O)NC(=O)[C@H](Cc2ccc(O)cc2)N(C)C(=O)[C@H](Cc2ccc(O)cc2)NC(=O)[C@H](CCCNC(=N)N)NC(=O)[C@H](CCCNC(=N)N)NC(=O)[C@H]([C@@H](C)CC)NC1=O` [compound 133] ({CH2CO}-AF[NMeF]VWNYYIIRRY[NMeY]C[PEG12]-NH2; thioether N-15), for which the equilibrium dissociation constant (Kd) under setting [3] is 1 to 100 nM.

Turning to `CC[C@H](C)[C@@H]1NC(=O)[C@H](Cc2ccc(OC)cc2)NC(=O)[C@H](Cc2ccc(O)cc2)NC(=O)[C@H](CC(N)=O)NC(=O)[C@H](Cc2c[nH]c3ccccc23)N(C)C(=O)[C@H](C(C)C)NC(=O)[C@H](Cc2cccc(Cl)c2)N(C)C(=O)[C@H](C(C)C)NC(=O)[C@H](C)NC(=O)CSC[C@@H](C(=O)N[C@H](CCC(=O)O)C(=O)NCC(=O)NCC(=O)NCC(=O)N[C@@H](CO)C(=O)N[C@@H](CO)C(=O)N[C@@H](CS)C(N)=O)NC(=O)[C@H](Cc2ccc(O)cc2)N(C)C(=O)[C@H](Cc2ccccc2)NC(=O)[C@@H](CCCNC(=N)N)NC(=O)[C@H](CCCNC(=N)N)NC(=O)[C@H]([C@@H](C)CC)NC1=O` [compound 402] ({CH2CO}-AV[NMePhe(3-Cl)]V[NMeW]NYY(Me)IIR[dR]F[NMeY]C[dE]GGGSSC-NH2; thioether N-15), the dissociation constant (Kd) under setting [2] was 1 to 100 nM.

For `CC[C@H](C)[C@@H]1NC(=O)[C@H](Cc2ccc(O)cc2)NC(=O)[C@H](Cc2ccc(O)cc2)NC(=O)[C@H](CC(N)=O)NC(=O)[C@H](Cc2c[nH]c3ccccc23)NC(=O)[C@H](C(C)C)NC(=O)[C@H](Cc2ccccc2)NC(=O)[C@H](C(C)C)NC(=O)[C@H](C)NC(=O)CSC[C@H](C(=O)NCCOCCOCCOCCOCCC(=O)N[C@@H](CNC(=O)c2ccc(-c3c4ccc(=O)cc-4oc4cc(O)ccc34)c(C(=O)O)c2)C(N)=O)NC(=O)[C@H](Cc2ccc(O)cc2)N(C)C(=O)[C@H](Cc2ccc(O)cc2)NC(=O)[C@H](CCCNC(=N)N)NC(=O)[C@H](CCCNC(=N)N)NC(=O)[C@H]([C@@H](C)CC)NC1=O` [compound 160], the dissociation constant (Kd) (SPR, linker and payload (FITC, VivoTag) conjugates, read-out: KD) fell in the range of 1 to 100 nM.

In the case of `CC[C@H](C)[C@@H]1NC(=O)[C@H](Cc2ccc(O)cc2)NC(=O)[C@H](Cc2ccc(O)cc2)NC(=O)[C@H](CC(N)=O)NC(=O)[C@H](Cc2c[nH]c3ccc(Cl)cc23)NC(=O)[C@H](C(C)C)NC(=O)[C@H](Cc2ccc(F)cc2)N(C)C(=O)[C@H](C(C)C)NC(=O)[C@H](C)NC(=O)CSC[C@@H](C(N)=O)NC(=O)[C@H](Cc2ccc(O)cc2)N(C)C(=O)[C@H](Cc2ccccc2)NC(=O)[C@H](CCCCNC(=O)CCOCCOCCOCCOC)NC(=O)[C@H](CCCNC(=N)N)N(C)C(=O)[C@H]([C@@H](C)CC)NC1=O` [compound 489], the Kd (SPR, hTfR, class symbols A-D, read-out: KD (column without head, continuation of the table series)) fell in the range of 100 to 1000 nM.

For `CC[C@@H]1NC(=O)[C@H]([C@@H](C)CC)NC(=O)[C@H]([C@@H](C)CC)NC(=O)[C@H](Cc2ccc(OC)cc2)NC(=O)[C@H](Cc2ccc(O)cc2)NC(=O)[C@H](CC(N)=O)NC(=O)[C@H](Cc2c[nH]c3ccccc23)N(C)C(=O)[C@H](C(C)C)NC(=O)[C@H](Cc2cccc(Cl)c2)N(C)C(=O)[C@H](C(C)C)NC(=O)[C@H](C)NC(=O)CSC[C@@H](C(=O)NCCOCCOCCOCCOCCC(N)=O)NC(=O)[C@H](Cc2ccc(O)cc2)N(C)C(=O)[C@H](Cc2ccccc2)NC(=O)[C@@H](CCCNC(=N)N)NC1=O` [compound 359] ({CH2CO}-AV[NMePhe(3-Cl)]V[NMeW]NYY(Me)II[Abu][dR]F[NMeY]C[PEG4]-NH2; thioether N-15), the equilibrium dissociation constant (Kd) under setting [2] lay in the range of 1 to 100 nM.

As to `CC[C@H](C)[C@@H]1NC(=O)[C@H](Cc2ccc(O)cc2)NC(=O)[C@H](Cc2ccc(O)cc2)NC(=O)[C@H](CC(N)=O)NC(=O)[C@H](Cc2c[nH]c3ccccc23)NC(=O)[C@H](C(C)C)NC(=O)[C@H](Cc2ccccc2)N(C)C(=O)[C@H](C(C)C)NC(=O)[C@H](C)NC(=O)CSC[C@@H](C(=O)NCCOCCOCCOCCOCCOCCOCCOCCOCCOCCOCCOCCOCCC(N)=O)NC(=O)[C@H](CCCNC(=N)N)NC(=O)[C@H](Cc2ccc(O)cc2)NC(=O)[C@H](CCCNC(=N)N)NC(=O)[C@H](CCCNC(=N)N)NC(=O)[C@H]([C@@H](C)CC)NC1=O` [compound 127], the Kd under setting [3] was in the range of 1 to 100 nM.

With `CC[C@H](C)[C@@H]1NC(=O)[C@H](Cc2ccc(OC)cc2)NC(=O)[C@H](Cc2ccc(O)cc2)NC(=O)[C@H](CC(N)=O)NC(=O)[C@H](Cc2c[nH]c3ccccc23)N(C)C(=O)[C@H](C(C)C)NC(=O)[C@H](Cc2cccc(Cl)c2)N(C)C(=O)[C@H](C(C)C)NC(=O)[C@H](C)NC(=O)CSC[C@@H](C(N)=O)NC(=O)[C@H](Cc2ccc(O)cc2)N(C)C(=O)[C@H](Cc2ccccc2)NC(=O)[C@@H](CCCNC(=N)N)NC(=O)[C@H](CCCCN)N(C)C(=O)[C@H]([C@@H](C)CC)NC1=O` [compound 377], the dissociation constant (Kd) under setting [2] is 1 to 100 nM.

Consider `CC[C@H](C)[C@@H]1NC(=O)[C@H](Cc2ccc(OCC(=O)O)cc2)NC(=O)[C@H](Cc2ccc(O)cc2)NC(=O)[C@H](CC(N)=O)NC(=O)[C@H](Cc2c[nH]c3ccccc23)N(C)C(=O)[C@H](C(C)C)NC(=O)[C@H](Cc2cccc(Cl)c2)N(C)C(=O)[C@H](C(C)C)NC(=O)[C@H](C)NC(=O)CSC[C@@H](C(N)=O)NC(=O)[C@H](Cc2ccc(O)cc2)N(C)C(=O)[C@H](Cc2ccccc2)NC(=O)[C@@H](CCCNC(=N)N)NC(=O)C(C)(C)NC(=O)[C@H]([C@@H](C)CC)NC1=O` [compound 324], for which the Kd under setting [1] is above 1000 nM.
